The values below come from publication PMC6736837, “^18F-labelled triazolyl-linked argininamides targeting the neuropeptide Y Y1R for PET imaging of mammary carcinoma” (Scientific Reports, 2019).

The subject of series [1] is MCF-7-Y1 tumour slices. The series is described as follows: In-vitro autoradiography on MCF-7-Y1 tumour xenograft slices. It counts as binding, human. The settings on record: blocking with 1 µM and 10 µM BIBP3226. Here is the method:
MCF-7-Y1 tumour bearing mice were sacrificed by cervical dislocation under deep isoflurane anesthesia and tumours were excised and subsequently frozen in a hexane/dry ice bath (−70 °C). MCF-7-Y1 tumour slices (14 µm) were prepared on a cryostat microtome HM 500 O (Microm, Walldorf) and thaw-mounted on Histobond® adhesive glass slides (Marienfeld, Lauda-Königshofen).
For autoradiography studies slides were thawed and pre-incubated for 15 min in incubation buffer (50 mM TRIS HCl, pH 7.4, containing 120 mM NaCl, 5 mM MgCl2,) at room temperature. Thereafter, 800 µL of incubation buffer, containing 0.1 MBq of the respective radiotracer were pipetted on the slide and incubated at room temperature for 60 min. For displacement studies BIBP3226 (1 µM or 10 µM) was added to the incubation buffer before pipetting on the slides. Afterwards slides were washed by placing in ice cold incubation buffer (3 × 2 min) followed by short dipping in ice cold distilled water. Slides were carefully dried in a stream of warm air and finally placed on an autoradiography film (Fuji Imaging Plate BAS-IP SR 2025 E, Fujifilm, Düsseldorf) overnight prior to readout (25 µm resolution) on the autoradiograph (HD-CR-35 Bio, Raytest, Straubenhardt) and analysis with the software AIDA (Raytest). Additional sections were stained with hematoxylin and eosin (H&E) for comparison with the autoradiography images.
On the technique in general: A xenograft is tissue or cells of one species grown in another, often human tumour cells in immunodeficient mice.

For series [2], the system named is MCF-7-Y1 cells. The series is described as follows: Cellular accumulation assay in MCF-7-Y1 cells. To be noted: nonspecific binding with 10 µM BIBP3226; [^18F]12 at 30 and 60 min. It counts as cell-based, human. As to the method: MCF-7-Y1 is a subclone that originated in Prof. […] MCF-7-Y1 cells were cultivated in MEM Earle´s liquid medium with 2.2 g/L NaHCO3 (Merck Biochrom, Darmstadt) containing 10% FBS and 1% L-glutamine. All cells were cultured under sterile conditions in a humidified atmosphere containing 5% CO2 at 37 °C. Cells were routinely passaged twice a week.
The cellular accumulation of Y1R radioligands by MCF-7-Y1 cells was measured: On the day prior to the experiment, 300,000 cells per well were seeded into 24-well plates (Greiner Bio-One). Attached cells were washed twice with cold PBS and 450 µL of assay medium (cell culture medium containing 0.1% BSA) were added to the cells for total binding. For non-specific binding, 400 µL of assay medium and 50 µL of medium containing 10 µM BIBP3226 were added. Finally, 50 µL of medium containing approx. 15 kBq of the respective radiotracer were added to each well, and cells were incubated at 37 °C for 10, 30, 60 or 90 min. After incubation, cells were washed with 500 µL of ice-cold PBS and lysed with 600 µL of warm 1 M NaOH. The lysed cells were transferred to counting tubes and analysed in the γ-counter (Wallac Wizard, Perkin Elmer, Waltham, MA, USA). Separate tubes containing 50 µL of medium with the radiotracer (approx. 15 kBq) were analysed as reference samples. Experiments were performed in sextuplicate (n = 6).

Series [3] can be described thus: Binding to human plasma proteins by gel filtration. It counts as in vitro ADME. To be noted: 37 °C, read-out: Free fraction in plasma. Here is the method:
The binding of ^18F-labelled compounds to plasma proteins was determined using gel filtration columns(illustra™ MicroSpin™ G-50 Columns, GE Healthcare Life Sciences, Freiburg). An aliquot of the radiotracer (approx. 100 kBq) was added to 200 µL of saline, and 100 µL of human plasma, respectively. Both samples were incubated at 37 °C for 10 min. MicroSpin™ columns were prepared according to the user instruction. Then 25 µL of the incubated radiotracer were given onto the columns and the devices were centrifuged (2000 × g, 2 min). Eluate and solid phase were analysed in the γ-counter (Wallac Wizard). The percentage of unbound radioligand was calculated as %free=cpmsolidphase/cpmsolidphase+cpmeluate . The sample in saline was used as control.
In general terms: In gel filtration, larger molecules generally elute earlier.

Series [4] can be described thus: Octanol-water distribution coefficient logD7.4, shake flask method. The format is physicochemical. The settings on record: 1-octanol/PBS, pH 7.4, PBS/1-octanol, read-out: logD7.4 experimental. As to the method: The lipophilicity of the radioligands was determined by the distribution coefficient logD7.4. The respective radioligand (10 µL, about 25 kBq) was added to a mixture of PBS (500 µL) and 1-octanol (500 µL) and the emulsion was vortexed for 1 min. After centrifugation 3 × 100 µL were taken of each layer and analysed by a γ-counter. The partition coefficient was calculated as logD7.4=log(cpmoctanol/cpmPBS) . Data were expressed as mean values ± SD from three experiments.

The test system of series [5] is MCF-7-Y1 tumours. Nature of the series: Small animal PET in MCF-7-Y1 xenografted nude mice. The settings on record: 45–60 min p.i., blocking by co-injection of BIBP3226 1 mg/kg. It counts as in vivo, mouse. Here is the method:
For the NPY Y1R xenograft model, female NMRI nude mice (HsdCpb:NMRI-Foxn1^nu) were purchased from Envigo (Horst, The Netherlands) at the age of three weeks. Mice were kept in groups of four to five animals in individually ventilated cages in a twelve hours dark/light cycle with unlimited access to water and standard chow. At the age of nine to ten weeks one 17β-estradiol pellet per animal (0.72 mg per pellet, 3 mm diameter) with a 60-day release time (Innovative Research of America, Sarasota, FL, USA) was subcutaneously implanted on the back under isoflurane anesthesia. After three days, approximately 10^6 MCF-7-Y1 tumour cells (in 50 µL PBS) were mixed with Matrigel (50 µL, BD Biosciences, Heidelberg) and then injected subcutaneously at the back. Tumour diameters and weight of the animals were recorded five times a week. Imaging studies were performed four weeks after inoculation of the cells.
Small animal PET scans were performed on an Inveon™ microPET scanner (Siemens Healthcare, Erlangen) under isoflurane anesthesia (3%). Tumour bearing mice (26–35 g, n = 2–3 for each radioligand) were intravenously injected into the tail vein with the respective radiotracer (1.5–4.2 MBq in about 100 µL of saline) under isoflurane anesthesia (3–4%). Static images were acquired for 15 min starting 45 min p.i. of the radiotracer. For displacement studies, the same mice were co-injected with the radiotracer ([^18F]12 and [^18F]13 only) and BIBP3226 (1 mg/kg). Images were corrected for decay and attenuation and MAP (iterative maximum a posteriori) images were reconstructed using the built-in software of the PET scanner. Evaluation of the MAP images was conducted using the software PMOD (version 3.6, PMOD Technologies LLC, Zürich). Regions of interests (ROIs) were drawn and radioactivity concentration within these regions was obtained from the mean values and calculated as percentage of the total injected dose per gram tissue (% ID/g).

“Also recorded” adds a separate entry of the source.

In the case of `N/C(=N/C(=O)NCc1cn([C@@H]2OC(C[18F])[C@@H](O)C(O)C2O)nn1)NCCC[C@@H](NC(=O)C(c1ccccc1)c1ccccc1)C(=O)NCc1ccc(O)cc1` (stereo partly drawn) [[^18F]11, (2R)‐5‐{[(1Z)‐Amino({[({1‐[(2R,5S)‐6‐([^18F]fluoromethyl)‐3,4,5‐trihydroxyoxan‐2‐yl]‐1H‐1,2,3‐triazol‐4‐yl}methyl)carbamoyl]imino})methyl]amino}‐2‐(2,2‐diphenylacetamido)‐N‐[(4‐hydroxyphenyl)-methyl]pentanamide], the “specific binding to MCF-7-Y1 tumour slices (autoradiography)” value in series [1] was “very low specific binding”. Moreover, the “specific accumulation in MCF-7-Y1 cells (total radioactivity in each well = 100%)” value in series [2] is listed as “almost no specific binding”. In series [3], the fraction unbound at 10 min was determined as 0.42. The logD in series [4] amounted to 0.78 ± 0.005. The “tumour visualisation / specific tumour accumulation in PET” value in series [5] was “visualision of the tumour with the fluoroglycosylated radiotracer [^18F]11 failed”.

`N/C(=N/C(=O)NCc1cn(CCOCCOCCOCC[18F])nn1)NCCC[C@@H](NC(=O)C(c1ccccc1)c1ccccc1)C(=O)NCc1ccc(O)cc1` [[^18F]13, (2R)‐5‐{[(1Z)‐Amino[({[1‐(2‐{2‐[2‐(2‐[^18F]fluoroethoxy)ethoxy]ethoxy}ethyl)‐1H‐1,2,3‐triazol‐4‐yl]methyl}carbamoyl)imino]methyl]amino}‐2‐(2,2‐diphenylacetamido)‐N‐[(4‐hydroxyphenyl)-methyl]pentanamide]: the “specific binding to MCF-7-Y1 tumour slices (autoradiography)” value in series [1] was “marked specific binding”. For the same molecule, the “specific accumulation in MCF-7-Y1 cells (total radioactivity in each well = 100%)” value in series [2] is 1%. For the same molecule, the fraction unbound at 10 min in series [3] turned out to be 0.37. Also, in series [4], the logD amounted to 1.49 ± 0.003. For the same molecule, in series [5], the “tumour visualisation / specific tumour accumulation in PET” value is “displaceable and thus specific Y1R-mediated tumour acculuation in vivo; also recorded: enhanced and specific tumour uptake”.
